# Columns and labels:
# B16 = experiment: The compound was tested for cytotoxicity against B16 melanoma cells; format: functional; details: Mus musculus, read-out: ED50 (the source's name)
# [1] = Effective dose required to promote microtubule assembly at 10 uM tubulin concentration; format: functional
SMILES,EC50 (B16),ED50 [1]
CC(=O)O[C@H]1C(=O)[C@@]2(C)[C@H]([C@H](OC(=O)c3ccccc3)[C@]3(O)C[C@H](OC(=O)[C@H](O)[C@@H](NC(=O)c4ccccc4)c4ccc(Cl)cc4)C(C)=C1C3(C)C)[C@]1(OC(C)=O)CO[C@@H]1C[C@@H]2O,61 nM,1300 nM
CC(=O)O[C@H]1C(=O)[C@]2(C)[C@@H](O)CC3OC[C@@]3(OC(C)=O)[C@H]2[C@H](OC(=O)c2ccccc2)[C@]2(O)C[C@H](OC(=O)[C@H](O)[C@@H](NC(=O)c3ccc(Cl)cc3)c3ccccc3)C(C)=C1C2(C)C (stereo partly specified),43 nM,1700 nM
CC(=O)O[C@H]1C(=O)[C@@]2(C)[C@H]([C@H](OC(=O)c3ccccc3)[C@]3(O)C[C@H](OC(=O)[C@H](O)[C@@H](NC(=O)c4ccccc4)c4ccccc4)C(C)=C1C3(C)C)[C@]1(OC(C)=O)CO[C@@H]1C[C@@H]2O [PACLITAXEL],28 nM,700 nM
